The test system of series [1] is HOP-62 (non-small-cell lung cancer cell line). The series can be described thus: SRB cytotoxicity assay, HOP-62. The format is cell-based, human. The following applies: 3 days incubation, DMSO solutions. As to the method: (§1) The cells were obtained by the Egyptian Holding Company for Biological Products and Vaccines (VACSERA) and then maintained in the tissue culture unit. Cells were grown in RPMI-1640 medium, supplemented with 10% heat inactivated FBS, 50 units/mL of penicillin, and […] of streptomycin, and maintained in a humidified atmosphere with 5% carbon dioxide. The cells were kept as monolayer cultures by serial sub-culturing, using cell culture reagents from Lonza (Basel, Switzerland). The antitumor activities of the complexes were assessed against OVCAR-3 (ovarian carcinoma cancer) and HOP-62 (non-small-cell lung cancer) cell lines.
(§2) The sulforhodamine B (SRB) assay method was applied to determine the cytotoxicity, as described in the literature. Exponentially growing cells were collected using 0.25% Trypsin-EDTA and seeded in 96-well plates at 1000–2000 cells/well in RBMI-1640 supplemented medium. The cells were kept in the medium for 24 h and then incubated for 3 days with various concentrations of the gold compounds. Following 3 days of treatment, the cells were fixed with 10% Cl3CCOOH for 60 min at 4 °C. Wells were stained for 10 min at room temperature with 0.4% SRBC dissolved in 1% CH3COOH. The plates were air dried for 24 h, and the dye was dissolved in Tris-HCl for 5 min with shaking at 1600 rpm. The optical density of each well was evaluated spectrophotometrically at 564 nm with an ELISA microplate reader (ChroMate-4300, Orlando, FL, USA). The half […] inhibitory concentration (IC50) values were calculated from a Boltzmann sigmoidal concentration response curve using nonlinear regression fitting models (Graph Pad, Prism Version 9, San Diego, CA, USA).
In general terms: In SRB staining, fixed cells bind dye roughly in proportion to their protein.

The subject of series [2] is OVCAR-3 (ovarian carcinoma cancer cell line). The series can be described thus: SRB cytotoxicity assay, OVCAR-3. To be noted: for IC50: 3 days incubation, SRB, DMSO solutions. The format is cell-based. The method, then:
as §1, §2

For series [3], the target named is human serum albumin (HSA) (Homo sapiens, UniProt P02768). The series can be described thus: HSA fluorescence quenching binding study. Set-up: Kq (quenching rate constant): unit not given here. The following applies: for n (number of binding sites) / Ksv (Stern–Volmer quenching constant) / Kq (quenching rate constant) / ∆G^0 (Gibbs free energy of binding to HSA): 295 K; for Ksv (Stern–Volmer quenching constant): HSA 32 µM, Tris-HCl/NaCl buffer pH 7.4, ca. 20% DMSO; for Kq (quenching rate constant): Ksv = Kq × τ0, τ0 = 7 ns; for ∆G^0 (Gibbs free energy of binding to HSA): calculated from Kb; for fold enhancement in HSA binding affinity on replacing triphenylphosphine with tricyclohexylphosphine: proceeding from 1 to 2 and 3 to 5; for fold increase in HSA binding affinity on introducing the o-phenolic moiety: proceeding from 1 to 3 and 2 to 5. As to the method:
Human serum albumin (HSA) solution (32 µM) was prepared in Tris-HCl/NaCl aqueous buffer (pH = 7.4). The solution was titrated with different concentrations of complexes 1–5 in DMSO (the amount of DMSO was maintained at ca. 20% v/v). The changes in the emission intensity of the protein were followed at around 330 nm upon excitation at 275 nm after incubating the complexes for 4 min at 295 K. The Stern–Volmer quenching constants (KSV) were obtained from Equation (1), where Io and I are the emission intensities of the protein in the absence and the presence of the complexes, respectively. The […]; the KSV value was defined as the slope of the line. The Stern–Volmer constant is related to the quenching constant by Equation (2), where Kq is the quenching rate constant, and τ0 is the average lifetime of the fluorescence for free HSA (τ0 = 7 ns). The binding constant (Kb, M^−1) and the number of binding sites (n) were calculated by plotting log[Io − I/I] against Log [Au complex], where the slope equals n and the intercept is equivalent to Log Kb according to Equation (3). Gibbs free energy (∆G^0) of the binding to HSA protein can be calculated by employing Equation (4), using the binding constant (Kb, M^−1). I0/I = 1 + Ksv [Au complex](1) Ksv = Kq × τ0(2) Log(I0 − I)/I = Log Kb + n Log [Au complex](3) ∆G^0 = −R × T × Ln × Kb(4)

The text below walks through data of publication PMC8066730, “Alteration of Anticancer and Protein-Binding Properties of Gold(I) Alkynyl by Phenolic Schiff Bases Moieties” (Pharmaceutics, 2021).

Sequence of human serum albumin (HSA) (P02768 25-609): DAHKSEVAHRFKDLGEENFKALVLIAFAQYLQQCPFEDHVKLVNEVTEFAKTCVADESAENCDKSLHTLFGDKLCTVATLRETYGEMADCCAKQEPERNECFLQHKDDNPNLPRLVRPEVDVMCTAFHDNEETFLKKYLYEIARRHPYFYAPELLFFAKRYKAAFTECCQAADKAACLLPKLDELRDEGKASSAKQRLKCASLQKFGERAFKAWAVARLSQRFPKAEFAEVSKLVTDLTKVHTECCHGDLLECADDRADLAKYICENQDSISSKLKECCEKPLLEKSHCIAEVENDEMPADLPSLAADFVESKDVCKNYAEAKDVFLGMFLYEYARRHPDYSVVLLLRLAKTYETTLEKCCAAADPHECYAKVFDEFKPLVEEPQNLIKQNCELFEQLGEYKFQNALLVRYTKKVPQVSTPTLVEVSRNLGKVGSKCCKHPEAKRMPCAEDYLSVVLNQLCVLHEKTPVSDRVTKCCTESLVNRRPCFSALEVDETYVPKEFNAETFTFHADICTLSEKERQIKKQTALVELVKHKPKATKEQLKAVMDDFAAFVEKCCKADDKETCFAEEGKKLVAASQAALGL

As for `Oc1ccc(N=Cc2ccc(C#[C][Au][PH](c3ccccc3)(c3ccccc3)c3ccccc3)cc2)cc1` [Compound 4, HO–4–C6H4–N=C–4-C6H4-C≡C–Au-PPh3], half-maximal inhibition in series [1] (IC50) required 8.16 ± 0.43 µM. The compound further returned an IC50 in series [2] of 5.27 ± 0.11 µM. Also, the “cytotoxic activity against OVCAR-3 in words” value in series [2] (compared with cisplatin) is given as “comparable to that of cisplatin”. For the same compound, in series [3], the “n (number of binding sites)” value came to 1.61, the “Ksv (Stern–Volmer quenching constant)” value is given as 71.5 ×10^4, the “Kq (quenching rate constant)” value is on record as 102.21 ×10^12 and the “∆G^0 (Gibbs free energy of binding to HSA)” value was -12.4 kcal/mol. Further, the “HSA binding constant relative to complex 3 (2-hydroxy)” value in series [3] (ratio of Kb, complex 4 vs complex 3) stood at 6400 times.
As for `N.N.[Cl][Pt][Cl]` [cisplatin, reference compound], the IC50 was 3.91 ± 0.2 µM in series [1] and 5.89 ± 0.12 µM in series [2].
Compound Au(C≡C-C6H4-4-CHO)(PPh3) [Compound 1] registered an IC50 in series [1] of 12.5 ± 0.43 µM. Besides, the IC50 in series [2] was determined as 13.7 ± 0.53 µM. Besides, in series [3], the “n (number of binding sites)” value turned out to be 0.82, the “Ksv (Stern–Volmer quenching constant)” value is given as 4.7 ×10^4, the “Kq (quenching rate constant)” value is reported as 6.71 ×10^12 and the “∆G^0 (Gibbs free energy of binding to HSA)” value was -5.07 kcal/mol.
Consider “HO–2–C6H4–N=C–4-C6H4-C≡C–Au-PCy3 [Compound 5]”, for which the IC50 in series [1] is 7.55 ± 0.43 µM. Further, the midpoint of inhibition in series [2], the IC50, lay at 9.11 ± 0.12 µM. Moreover, in series [3], the “n (number of binding sites)” value amounted to 1.37, the “Ksv (Stern–Volmer quenching constant)” value was 37.1 ×10^4, the “Kq (quenching rate constant)” value was 52.96 ×10^12 and the “∆G^0 (Gibbs free energy of binding to HSA)” value is -10.27 kcal/mol. Besides, in series [3], the “fold enhancement in HSA binding affinity on replacing triphenylphosphine with tricyclohexylphosphine” value came out at 170 fold and the “fold increase in HSA binding affinity on introducing the o-phenolic moiety” value is reported as 240 fold.
Consider “HO–2–C6H4–N=C–4-C6H4-C≡C–Au-PPh3 [Compound 3]”, for which the IC50 in series [1] stood at 7.25 ± 0.21 µM. Also, in series [2], the IC50 was 9.4 ± 0.17 µM. In series [3], the “n (number of binding sites)” value worked out at 0.96, the “Ksv (Stern–Volmer quenching constant)” value is 38.9 ×10^4, the “Kq (quenching rate constant)” value is recorded as 55.57 ×10^12 and the “∆G^0 (Gibbs free energy of binding to HSA)” value was -7.239 kcal/mol. Also, in series [3], the “fold increase in HSA binding affinity on introducing the o-phenolic moiety” value is on record as 40 fold.
OHC-4-C6H4-C≡C-Au-PCy3 [Compound 2] came in with an IC50 in series [1] of 14.82 ± 0.13 µM. In addition, the IC50 in series [2] amounted to 15.9 ± 0.53 µM. In addition, in series [3], the “n (number of binding sites)” value turned out to be 1.16, the “Ksv (Stern–Volmer quenching constant)” value is listed as 2.8 ×10^4, the “Kq (quenching rate constant)” value is 4.00 ×10^12 and the “∆G^0 (Gibbs free energy of binding to HSA)” value was -7.15 kcal/mol. The “fold enhancement in HSA binding affinity on replacing triphenylphosphine with tricyclohexylphosphine” value in series [3] was 30 fold.

A word on the IC50: it is the concentration that gives 50% inhibition.
